inhibition, pest or weed control and melting point data for 10 compounds are collected here from patent US9512120B2, “Microbicidally active imidazopyridine derivatives” (Syngenta Participations AG, priority 2013, dated 2016).

Data set [1] relates to Botryotinia fuckeliana (Botrytis cinerea). As to the kind of experiment: Botryotinia fuckeliana (Botrytis cinerea) / liquid culture (gray mould). As to conditions: Vogels broth, 24° C., 3-4 days after application, read-out: control of Botryotinia fuckeliana (inhibition of growth, photometric). Type of data set: cell-based. The method in brief: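 Test compound was applied at 200 ppm in DMSO, then Vogels nutrient broth containing cryo-stored B. cinerea conidia was added. Photometric growth-inhibition reading followed after 3-4 days at 24 °C.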

The test system of data set [2] is Glomerella lagenarium (Colletotrichum lagenarium). As to the kind of experiment: Glomerella lagenarium (Colletotrichum lagenarium) / liquid culture (anthracnose). The data set is classed as cell-based. As to conditions: Colletotrichum orbiculare, PDB, 24° C., 3-4 days after application, read-out: control of Glomerella lagenarium (inhibition of growth, photometric). In outline: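 Test compound, delivered in DMSO at an application rate of 200 ppm, was combined with spore-containing PDB. Photometric growth-inhibition measurement followed 3-4 days of incubation at 24° C.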

The subject of the next data set is Sclerotinia sclerotiorum. As to the kind of experiment: Sclerotinia sclerotiorum liquid culture (cottony rot / white mold). To be noted: PDB, 24° C., 3-4 days after application, read-out: control of Sclerotinia sclerotiorum (inhibition of growth, photometric). Type of data set: cell-based. The procedure: Sclerotinia sclerotiorum (Cottony Rot/White Mold): Mycelia fragments of a newly grown liquid culture of the fungus were directly mixed into nutrient broth (PDB potato dextrose broth). After placing a (DMSO) solution of test compound into a microtiter plate (96-well format) the nutrient broth containing the fungal material was added. The test plates are incubated at 24° C. and the inhibition of growth was determined photometrically 3-4 days after application.

A further data set has as its system Plasmopara viticola. As to the kind of experiment: Plasmopara viticola / grape / leaf disc preventative. The data set is classed as in vivo. To be noted: foliar, grape vine leaf disks, inoculated 1 day after application, assessed 6-8 days after application, read-out: control of Plasmopara viticola (percent disease control compared to untreated).
Data set [3] deals with Mycosphaerella graminicola (Septoria tritici). As to the kind of experiment: Mycosphaerella graminicola (Septoria tritici) / liquid culture (Septoria blotch). Type of data set: cell-based. To be noted: Zymoseptoria tritici, PDB, 24° C., 4-5 days after application, read-out: control of Mycosphaerella graminicola (inhibition of growth, photometric). In outline: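 Growth inhibition was read photometrically after 4–5 days at 24 °C. The test compound was applied at 200 ppm from DMSO solution, then PDB broth seeded with conidia taken straight from cryogenic storage was added.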

In data set [4] the test system is Phaeosphaeria nodorum (Septoria nodorum). Nature of the data set: Phaeosphaeria nodorum (Septoria nodorum) / wheat / leaf disc preventative (glume blotch). Type of data set: in vivo. To be noted: Parastagonospora nodorum, foliar, wheat leaf segments cv Kanzler, inoculated 2 days after application, assessed 5-7 days after application, read-out: control of Phaeosphaeria nodorum (percent disease control compared to untreated). In outline: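 Wheat leaf segments (cv Kanzler) on agar sprayed with compound at 200 ppm, inoculated with spores 2 days later. Incubated at 20° C., 75% relative humidity, 12/12 h light/dark; percent disease control versus untreated scored 5-7 days after application.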

In data set [5] the test system is Thanatephorus cucumeris (Rhizoctonia solani). Nature of the data set: Thanatephorus cucumeris (Rhizoctonia solani) / liquid culture (foot rot, damping-off). The data set is classed as cell-based. To be noted: PDB, 24° C., 3-4 days after application, read-out: control of Thanatephorus cucumeris (inhibition of growth, photometric). In outline:
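At 200 ppm, compounds in DMSO were combined with fresh liquid-culture mycelia in PDB and kept at 24° C; photometric measurement of growth inhibition after 3-4 days.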

Data set [6] has as its system Monographella nivalis (Microdochium nivale). Nature of the data set: Monographella nivalis (Microdochium nivale) / liquid culture (foot rot cereals). Type of data set: cell-based. To be noted: PDB, 24° C., 4-5 days after application, read-out: control of Monographella nivalis (inhibition of growth, photometric). In outline:
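Cryostored conidia in potato dextrose broth were added to test compound dispensed from DMSO at 200 ppm. Plates were kept at 24° C, and growth inhibition was read photometrically 4-5 days after application.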

In a further data set the test system is Pyrenophora teres. As to the kind of experiment: Pyrenophora teres / barley / leaf disc preventative (net blotch). Type of data set: in vivo. To be noted: foliar, barley leaf segments cv Hasso, inoculated two days after application, assessed 5-7 days after application, read-out: control of Pyrenophora teres (disease control compared to untreated). In outline: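 Preventative leaf-disc test: 200 ppm spray, then spore inoculation after two days on barley cv Hasso segments. Incubation 20 °C, 65% relative humidity, 12 h light/12 h dark; efficacy rated against untreated checks at 5-7 days post-application.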

Data set [7] concerns Puccinia recondita f. sp. Tritici. Nature of the data set: Puccinia recondita f. sp. tritici / wheat / leaf disc preventative (brown rust). To be noted: foliar, wheat leaf segments cv Kanzler, inoculated 1 day after application, assessed 7-9 days after application, read-out: control of Puccinia recondita f. sp. Tritici (percent disease control compared to untreated). The data set is classed as in vivo. In outline:
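Preventative test: percent disease control relative to untreated leaf segments was assessed 7-9 days post-application. Wheat (cv Kanzler) leaf discs were treated at 200 ppm and spore-inoculated 1 day afterwards. Discs were held at 19° C and 75% relative humidity under a 12/12 h light cycle.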

The subject of a further data set is Gaeumannomyces graminis. As to the kind of experiment: Gaeumannomyces graminis / liquid culture (take-all of cereals). The data set is classed as cell-based. To be noted: PDB, 24° C., 4-5 days after application, read-out: control of Gaeumannomyces graminis (inhibition of growth, photometric). The method in brief:
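Growth inhibition, measured by photometry 4-5 days post-application at 24 °C, of fungal mycelial fragments in PDB broth. Test compound applied as DMSO solution at 200 ppm.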

Data set [8] deals with Mycosphaerella arachidis (Cercospora arachidicola). As to the kind of experiment: Mycosphaerella arachidis (Cercospora arachidicola) / liquid culture (early leaf spot). Type of data set: cell-based. As to conditions: PDB, 24° C., 4-5 days after application, read-out: control of Mycosphaerella arachidis (inhibition of growth, photometric). The procedure:
Mycosphaerella Arachidis (Cercospora arachidicola)/Liquid Culture (Early Leaf Spot): Conidia of the fungus from cryogenic storage were directly mixed into nutrient broth (PDB potato dextrose broth). After placing a DMSO solution of test compound into a 96-well microtiter plate at an application rate of 200 ppm, the nutrient broth containing the fungal spores was added. The test plates are incubated at 24° C. and the inhibition of growth was determined photometrically 4-5 days after application.

The test system of data set [9] is Blumeria graminis f. Sp. Tritici (Erysiphe graminis f. Sp. Tritici). Nature of the data set: Blumeria graminis f. sp. tritici / wheat / leaf disc preventative (powdery mildew on wheat). The data set is classed as in vivo. To be noted: foliar, wheat leaf segments cv. Kanzler, inoculated 1 day after application, assessed 6-8 days after application, read-out: control of Blumeria graminis (percent disease control compared to untreated). The procedure:
Blumeria graminis f. Sp. Tritici (Erysiphe graminis f. Sp. Tritici)/Wheat/Leaf Disc Preventative (Powdery Mildew on Wheat):
Wheat leaf segments cv. Kanzler were placed on agar in a 24-well plate and sprayed with the formulated test compound diluted in water at an application rate of 200 ppm. The leaf disks were inoculated by shaking powdery mildew infected plants above the test plates 1 day after application. The inoculated leaf disks were incubated at 20° C. and 60% relative humidity under a light regime of 24 h darkness followed by 12 h/12 h (dark/light) in a climate chamber and the activity of a compound was assessed as percent disease control compared to untreated when an appropriate level of disease damage appears on untreated check leaf segments (6-8 days after application). The following compounds gave at least 80% control of Blumeria graminis at 200 ppm when compared to untreated control leaf disks under the same conditions, which show extensive disease development: 2, 13, 23, 50, 59, 61, 67, 75, 85, 86, 89, 90, 93, 102, 103, 107, 134, 136, 137, 138, 139, 141, 145, 151, 153, 154, 163, 173, 174

Take `CCn1c(-n2ncnc2N)nc2cncc(C(C)=NOCc3ccccc3)c21` [Compound 165]: the inhibition at 20 ppm (in [1]; in [2]; in the data set on Sclerotinia sclerotiorum; in data set [3]; in data set [5]; in data set [6]) was no less than 80% in each case. Moreover, the pest or weed control at 200 ppm (in the data set with Plasmopara viticola; in data set [4]; with Pyrenophora teres; in [7]) was no less than 80% in each case.

Turning to `CCn1c(-n2ncnc2N)nc2cncc(C(C)=NOCc3ccc(F)cc3)c21` [Compound 135], the melting point (commonly the temperature, or range, at which the solid turns liquid) fell in the range of 175 to 187 °C. For the same compound, in data set [1], the inhibition (in general, how much of the control response was suppressed) at 20 ppm was no less than 80%. In the data set on Plasmopara viticola, the pest or weed control at 200 ppm was no less than 80%. Further, the inhibition at 20 ppm with Gaeumannomyces graminis is no less than 80%. The inhibition at 20 ppm in data set [3] is no less than 80%. For the same compound, the inhibition at 20 ppm in data set [5] is no less than 80%. In addition, the pest or weed control at 200 ppm in the data set with Pyrenophora teres was no less than 80%. In addition, in data set [7], the pest or weed control at 200 ppm is no less than 80%.

With `CCn1c(-n2ncnc2N)nc2cncc(/C(C)=N\OCC(C)C)c21` [Compound 161], the inhibition at 20 ppm (in [1]; in data set [2]; with Sclerotinia sclerotiorum; in [3]; in data set [8]; in [5]) was no less than 80% each time. For the same compound, the pest or weed control at 200 ppm (in the data set on Plasmopara viticola; with Pyrenophora teres; in [7]) was no less than 80% in each case.

As to `CCn1c(-n2ncnc2N)nc2cncc(-c3ccc(C)cc3C)c21` [Compound 45, 2-[7-(2,4-dimethylphenyl)-1-ethylimidazo[4,5-c]pyridin-2-yl]-1,2,4-triazol-3-amine], the inhibition at 20 ppm in data set [1], in [3], in data set [8] and in data set [5] was no less than 80% throughout. For the same compound, the pest or weed control at 200 ppm (with Plasmopara viticola; in data set [4]; in the data set with Pyrenophora teres; in data set [7]) was no less than 80% each time.

Turning to `CCn1c(-n2ncnc2N)nc2cncc(C(C)=NOCc3ccccc3Cl)c21` [Compound 144], the inhibition at 20 ppm (in [1]; in [2]; in the data set on Sclerotinia sclerotiorum; in data set [3]; in [5]; in data set [6]) was no less than 80% throughout. Moreover, the pest or weed control at 200 ppm (in the data set with Plasmopara viticola; in data set [4]; in the data set on Pyrenophora teres; in data set [7]) was no less than 80% each time.

As to `CCn1c(-n2ncnc2N)nc2cncc(C(C)=NOCC=C(Cl)Cl)c21` [Compound 155], the inhibition at 20 ppm (in data set [1]; in data set [2]; in the data set with Sclerotinia sclerotiorum; in data set [3]; in [8]; in data set [5]) was no less than 80% throughout. In [6], the inhibition at 20 ppm was no less than 80%. In addition, the pest or weed control at 200 ppm (in the data set on Plasmopara viticola; in data set [4]; in the data set with Pyrenophora teres; in data set [7]) was no less than 80% throughout.

Take `CCn1c(-n2ncnc2N)nc2cncc(-c3cccc4c3OC(F)(F)O4)c21` [Compound 48, 2-[7-(2,2-difluoro-1,3-benzodioxol-4-yl)-1-ethylimidazo[4,5-c]pyridin-2-yl]-1,2,4-triazol-3-amine]: the inhibition at 20 ppm (in [1]; in [2]; in the data set with Sclerotinia sclerotiorum; with Gaeumannomyces graminis; in [3]; in [8]) was no less than 80% each time. The inhibition at 20 ppm in data set [5] and in [6] was no less than 80% in each case. The pest or weed control at 200 ppm (in the data set with Plasmopara viticola; in data set [4]; with Pyrenophora teres; in [7]) was no less than 80% throughout.

For the compound `CCn1c(-n2ncnc2N)nc2cncc(/C(C)=N\OCC=C(C)C)c21` [Compound 156], the inhibition at 20 ppm (in data set [1]; in [2]; with Sclerotinia sclerotiorum; in [3]; in data set [5]; in [6]) was no less than 80% each time. In addition, the pest or weed control at 200 ppm (in the data set on Plasmopara viticola; in data set [4]; in the data set on Pyrenophora teres; in data set [7]) was no less than 80% in each case.

The compound `CCn1c(-n2ncnc2N)nc2cncc(C3CC(c4ccccc4)=NO3)c21` (stereo not drawn) [Compound 109, 2-[1-ethyl-7-(3-phenyl-4,5-dihydro-1,2-oxazol-5-yl)imidazo[4,5-c]pyridin-2-yl]-1,2,4-triazol-3-amine] came in with a melting point of 201 to 209 °C. Moreover, in data set [1], the inhibition at 20 ppm is no less than 80%. Besides, the pest or weed control at 200 ppm in the data set with Plasmopara viticola was no less than 80%. Besides, the inhibition at 20 ppm in the data set on Gaeumannomyces graminis is no less than 80%. For the same compound, in [3], the inhibition at 20 ppm is no less than 80%. The inhibition at 20 ppm in data set [5] is no less than 80%. Further, the pest or weed control at 200 ppm in the data set on Pyrenophora teres is no less than 80%. In data set [7], the pest or weed control at 200 ppm was no less than 80%.

On to `CCn1c(-n2ncnc2N)nc2cncc(-c3cncnc3)c21` [Compound 50, 2-(1-ethyl-7-pyrimidin-5-ylimidazo[4,5-c]pyridin-2-yl)-1,2,4-triazol-3-amine], for which the pest or weed control at 200 ppm in data set [9] was no less than 80%.
